“Also recorded” adds a separate entry of the source. Where a name gives a salt, the structure may show the parent alone.
Legend:
HCT116 cells = experiment: Screening for enhancers of IR-mediated cellular cannibalism (imaging flow cytometry, confocal microscopy validation); type: cell-based, human; details: 8 Gray, 10 μM compound, 24 hours of culture
Procedure: FIG. 4 Identification of cannibalism modulators triggered by ionizing radiation. Compounds from the Prestwick (A) and CEA (F) libraries were tested for their capacities to induce cellular cannibalism after ionizing radiation. Cannibal cells were detected after homotypic cultures of 8 gray γ-irradiation HCT116 cells in the presence or absence of […] of the Prestwick (A) and CEA […] library compounds. Each dot represents one compound. Representative images are shown in (B, G). (C, H) HCT116 cells were treated with the indicated drugs. After 24 h of treatment, cell death was monitored by staining with 3,3 dihexyloxacarbocyanine iodide (DiOC6(3)) and PI, and the percentage of dying (DiOC6(3)^low PI^−, open bars) and dead (DiOC6(3)^low PI^+, closed bars) cells was determined by cytofluorometry. Validation of the cannibalism inducers by fluorescent microscopy. Representative images (D, I) and quantification (E, J) are shown. Results are means±s.e.m. of triplicate determinations.
Then, the screening of a library of chemical compounds was developed in order to identify compounds able to induce IR-mediated cellular cannibalism. Thus, HCT116 cells that have been treated with a radiation dose of 8 Gray were stained either with orange CMTMR cell tracker or green CMFDA cell tracker and cultivated in presence of 10 μM of chemical compounds. After 24 hours of culture, cells have been stained with nuclear dye (5 μg/ml of Hoechst 33342 during 1 h at 37° C.) and analyzed using the FlowSight® Imaging Flow Cytometer for cellular cannibalism. Each of these compounds were classified according to their Z-score^47 and identified respectively 13 and 11 candidate compounds (FIGS. 4A, 4B, 4F and 4G). Then, the identified compounds were validated by combining flow cytometry approaches (in order to eliminate cytotoxic compounds by simultaneously monitoring the depolarization of the internal mitochondrial membrane and the plasma membrane permeability of the treated cells) with confocal microscopy approaches (to confirm the modulation of IR-induced cellular cannibalism by candidate compounds) (FIGS. 4C-E and 4H-J). […] Finally, 16 chemical compounds that are able to enhance the capacity of IR to trigger cellular cannibalism were identified (FIGS. 4E and 4J, Tables 1&2).

CT26 cells = experiment: Anti-tumor vaccination assay, treated CT26 cells inoculated into BALB/c mice and rechallenge; type: in vivo, mouse; details: for Protective response after injection of cancer cells, compound alone: CT26 cells treated with 10 μM compound alone (no IR); for Frequency of mice showing a protective response: 8 Gy in presence of 10 μM compound for 24 hours
Procedure: FIG. 5. Identification of cannibalism modulators as immunogenic cell death inducers. MCA205 (A) or CT26 (E, I, M, Q) cells were treated with the indicated drugs. After 24 h of coculture with the indicated treatment, cell death was monitored by staining DiOC6(3) and PI, and the percentage of dying (DiOC6(3)^low PI^−, open bars) and dead (DiOC6(3)^low PI^+, closed bars) cells was determined by cytofluorometry. (B-D) MCA205 cells or (F-H, J-L, N-P, R-T) CT26 cells cocultured after x irradiation with the indicated compounds were inoculated subcutaneously into the right flank of […] or BALB/c mice, respectively. Seven days later, the mice were rechallenged with live cells injected into the opposite flank, and tumor growth was monitored (five mice per group).
FIG. 6. Tumor vaccination experiments. CT26 cells were treated for 24 hours with 10 μM VP331 (A, F, K), 10 μM Minaprine (B, G, L), 10 μM Lopa87 (C, H, M), 10 μM SG6163F (D, I, N), 10 μM Azaguanine-8 (8-aza) (E, J, O) alone or combined with 8 Gy ionizing radiation and inoculated (s.c.) into immunocompetent BALB/c mice, which were rechallenged at the opposite flank 7 days later with the same cancer cells. The percentage of tumor-free mice was evaluated three times a week for the following 38 days. Percentage of total tumor free mice (A-E), tumor free-mice at the first injection site (F to J, P) or at the second injection site (K to O, Q) are shown. (*P<0.05, **P<0.01, ***P<0.001, two-way ANOVA).
Considering that immunogenic cell death (ICD) inducers were identified (such as Digoxin, Digitoxin, Lanatoside C or Doxorubicin hydrochloride)^3, 4, 48-51) as IRCCE, the ability of these compounds to induce an antitumor immunity after radiotherapy was evaluated. First, a preclinical approaches was developed to study the immunological effects of IRCCE on two mouse models of carcinoma (colon CT26 carcinoma and fibrosarcoma MCA205). Initially, the ability of the combination of IRCCE+IR to trigger a specific anti-tumor immune response was appreciated using immunocompetent mice through anti-tumor vaccination assays. According to previously published studies^52, the injection of cancer cells succumbing to an immunogenic cell death (ICD) into immunocompetent mice must elicit a protective immune response that is specific for tumor antigens. Thus, 3×10^5 MCA205 cells were first treated with 10 μM of SG6163F for 24 hours. Then, treated cells were inoculated subcutaneously in 200 μl PBS into the lower flank of 8-week-old female C57BL/6 mice. One week later, 3×10^4 untreated control cells were inoculated into the contralateral flank of mice. Tumors were evaluated weekly using a common caliper. Animals bearing tumors that exceeded 20-25% body mass were euthanatized. […] Then, 3×10^6 CT26 cells were irradiated with 8 Gy in presence of 10 μM of SG6163F (FIGS. 5E and 5F), VP331 (FIGS. 5I and 5J), Minaprine dihydrochloride (FIGS. 5M and 5N) or LOPA87 (FIGS. 5Q and 5R) for 24 hours. Then, cells were inoculated as previously described subcutaneously in 200 μl PBS into the lower flank of 8-week-old female BALB/c mice. One week later, 5×10^5 untreated control cells were inoculated into the contralateral flank of mice and tumors were evaluated weekly using a common caliper. As previously mentioned, animals bearing tumors that exceeded 20-25% body mass were euthanatized. The percentage of dying cells in each condition was evaluated by determining with DiOC(6)3/IP staining (FIGS. 5E, 5I, 5M and 5Q). Finally, the ability of these compounds to repress the growth of cancer cells that have been injected 7 days after injection of irradiated and treated cancer cells was appreciated.
A second anti-tumor vaccination assay was done on CT26 mouse models of carcinoma as previously described. […]

[1] = second assay: CT26 cells, rechallenge 7 days later
[2] = first assay: CT26 cells, rechallenge one week later

Molecule: CCOC(=O)n1ccn(C)c1=S [Carbimazole]
- Enhancement of IR-mediated cellular cannibalism (IRCCE) (HCT116 cells): no effect

Molecule: COC(=O)Nc1nc2ccc(Sc3ccccc3)cc2[nH]1 [Fenbendazol]
- Enhancement of IR-mediated cellular cannibalism (IRCCE) (HCT116 cells): no effect

Molecule: COc1cccc2c1C(=O)c1c(O)c3c(c(O)c1C2=O)C[C@@](O)(C(=O)CO)C[C@@H]3O[C@H]1C[C@H](N)[C@H](O)[C@H](C)O1.Cl [Doxorubicine hydrochloride, Doxorubicin hydrochloride]
- Enhancement of IR-mediated cellular cannibalism (IRCCE) (HCT116 cells; hydrochloride): efficient cellular cannibalism enhancer
- Enhancement of IR-mediated cellular cannibalism (IRCCE) (HCT116 cells; listed as Doxorubicin hydrochloride, hydrochloride): IRCCE

Molecule: C[C@H]1O[C@@H](O[C@H]2[C@@H](O)C[C@H](O[C@H]3[C@@H](O)C[C@H](O[C@H]4CC[C@@]5(C)[C@H](CC[C@@H]6[C@@H]5CC[C@]5(C)[C@@H](C7=CC(=O)OC7)CC[C@]65O)C4)O[C@@H]3C)O[C@@H]2C)C[C@H](O)[C@@H]1O [Digitoxin]
- Enhancement of IR-mediated cellular cannibalism (IRCCE) (HCT116 cells): IRCCE; also recorded: efficient cellular cannibalism enhancer

Molecule: Nc1nc2[nH]nnc2c(=O)[nH]1 [8-Azaguanine]
- Protective response after injection of cancer cells, compound alone (CT26 cells): induce an increase of protective response
- Frequency of mice showing a protective response (CT26 cells; [1]): Significant increases in the frequency of mice showing a protective response
- Enhancement of IR-mediated cellular cannibalism (IRCCE) (HCT116 cells): efficient cellular cannibalism enhancer

Molecule: CC(=O)O[C@H]1C[C@H](O[C@H]2[C@@H](O)C[C@H](O[C@H]3[C@@H](O)C[C@H](O[C@H]4CC[C@@]5(C)[C@H](CC[C@@H]6[C@@H]5C[C@@H](O)[C@]5(C)[C@@H](C7=CC(=O)OC7)CC[C@]65O)C4)O[C@@H]3C)O[C@@H]2C)O[C@H](C)[C@H]1O[C@@H]1O[C@H](CO)[C@@H](O)[C@H](O)[C@H]1O [Lanatoside, Lanatoside C]
- Enhancement of IR-mediated cellular cannibalism (IRCCE) (HCT116 cells): efficient cellular cannibalism enhancer
- Enhancement of IR-mediated cellular cannibalism (IRCCE) (HCT116 cells; listed as Lanatoside C): IRCCE

Molecule: COc1cc(O)ccc1/C=N/c1ccccc1C(=O)Nc1ccccc1 [RN-1-026]
- Enhancement of IR-mediated cellular cannibalism (IRCCE) (HCT116 cells): efficient cellular cannibalism enhancer

Molecule: Myricetin
- Enhancement of IR-mediated cellular cannibalism (IRCCE) (HCT116 cells): efficient cellular cannibalism enhancer

Molecule: CN(C)c1ccc(-c2cc(=O)[nH]c(-c3ccccc3)n2)cc1 [LOPA87]
- Frequency of mice showing a protective response (CT26 cells; [2]): significant increase in the frequency of mice showing a protective response
- Frequency of mice showing a protective response (CT26 cells; [1]): Significant increases in the frequency of mice showing a protective response
- Enhancement of IR-mediated cellular cannibalism (IRCCE) (HCT116 cells): efficient cellular cannibalism enhancer

Molecule: Cc1cc(-c2ccccc2)nnc1NCCN1CCOCC1.Cl.Cl [Minaprine dihydrochloride]
- Protective response after injection of cancer cells, compound alone (CT26 cells; dihydrochloride): induce an increase of protective response; also recorded: intrinsic protective effects against tumor development
- Frequency of mice showing a protective response (CT26 cells; [2]): significant increase in the frequency of mice showing a protective response
- Frequency of mice showing a protective response (CT26 cells; [1]): Significant increases in the frequency of mice showing a protective response
- Enhancement of IR-mediated cellular cannibalism (IRCCE) (HCT116 cells): efficient cellular cannibalism enhancer

Molecule: O=C(N/N=C/c1ncc[nH]1)NC12CC3CC(CC(C3)C1)C2 [VP450]
- Enhancement of IR-mediated cellular cannibalism (IRCCE) (HCT116 cells): efficient cellular cannibalism enhancer

Molecule: CC(C(=O)O)c1ccc(-c2ccccc2)c(F)c1 (stereo not drawn) [Flurbiprofen]
- Enhancement of IR-mediated cellular cannibalism (IRCCE) (HCT116 cells): efficient cellular cannibalism enhancer

Molecule: CN1CCc2c(c3ccccc3n2Cc2ccccc2)C1 [Mebhydroline 1,5-napthalene disulfonate salt]
- Enhancement of IR-mediated cellular cannibalism (IRCCE) (HCT116 cells): efficient cellular cannibalism enhancer

Molecule: C[C@H]1O[C@@H](O[C@H]2[C@@H](O)C[C@H](O[C@H]3[C@@H](O)C[C@H](O[C@H]4CC[C@@]5(C)[C@H](CC[C@@H]6[C@@H]5C[C@@H](O)[C@]5(C)[C@@H](C7=CC(=O)OC7)CC[C@]65O)C4)O[C@@H]3C)O[C@@H]2C)C[C@H](O)[C@@H]1O [Digoxin]
- Enhancement of IR-mediated cellular cannibalism (IRCCE) (HCT116 cells): IRCCE; also recorded: efficient cellular cannibalism enhancer

Molecule: COc1ccc(C)cc1/C=N/[C@@H]1C[C@@H]2C[C@H]([C@H]1C)C2(C)C [VP331]
- Frequency of mice showing a protective response (CT26 cells; [2]): significant increase in the frequency of mice showing a protective response
- Frequency of mice showing a protective response (CT26 cells; [1]): Significant increases in the frequency of mice showing a protective response
- Enhancement of IR-mediated cellular cannibalism (IRCCE) (HCT116 cells): efficient cellular cannibalism enhancer

Molecule: CN1c2ccccc2C(=O)N(c2ccccc2)C1c1ccc(-c2csc(CO)c2)s1 (stereo not drawn) [VP43]
- Enhancement of IR-mediated cellular cannibalism (IRCCE) (HCT116 cells): efficient cellular cannibalism enhancer
